Data from patent US20250092064A1, “BENZOTRIAZOLE COMPOUND” (DAIICHI SANKYO COMPANY, LIMITED, priority 2022, published 2025).

Tests used:
[1] = target: binding between Nrf2 and Keap1 (Homo sapiens (Human), UniProt Q14145); assay: FP assay (in vitro): inhibition of Nrf2-Keap1 binding by fluorescence polarization; conditions: GST-fused human Keap1 (325-642) 20 nM, FITC-labeled Nrf2 peptide 10 nM, 2 hr at room temperature
[2] = tested on: NQO1 activity in Hepa1c1c7 cells; assay: NAD(P)H: quinone oxidoreductase-1 (NQO1) enzyme induction assay (in vitro); format: cell-based, mouse; conditions: Mus musculus, Hepa-1c1c7, NQO1 activity with 400 nM test compound as a ratio from the base without compound, about 48 hr
Procedure, shortened: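 Mouse Hepa1c1c7 hepatoma cells treated 48 hr with 400 nM compound (final). NQO1 activity in lysates read by absorbance at 610 nm; value is background-subtracted activity ratio versus untreated cells.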

Chain of binding between Nrf2 and Keap1 (Q14145 325-624 limits assumed): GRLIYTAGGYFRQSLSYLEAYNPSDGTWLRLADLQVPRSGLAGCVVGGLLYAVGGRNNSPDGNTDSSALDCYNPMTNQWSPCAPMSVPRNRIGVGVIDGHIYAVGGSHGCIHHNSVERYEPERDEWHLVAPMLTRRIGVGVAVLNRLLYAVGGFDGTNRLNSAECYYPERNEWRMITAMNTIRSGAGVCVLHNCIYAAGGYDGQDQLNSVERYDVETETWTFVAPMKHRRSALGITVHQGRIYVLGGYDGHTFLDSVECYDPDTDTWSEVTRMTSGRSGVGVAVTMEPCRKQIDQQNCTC

| Structure (SMILES) | IC50 [1] | fold induction at 0.4 µM [2] |
| --- | --- | --- |
| CC[C@@H]1CN(Cc2cc([C@@H](CC(=O)O)c3ccc4c(nnn4C)c3C)cc3c2CCC3)S(=O)(=O)c2cc(C)cnc2O1 [Example 47, (3R)-3-(1,4-Dimethyl-1H-benzotriazol-5-yl)-3-(7-{[(4R)-4-ethyl-8-methyl-1,1-dioxido-3,4-dihydro-2H-pyrido[2,3-b][1,4,5]oxathiazepin-2-yl]methyl}-2,3-dihydro-1H-inden-5-yl)propanoic acid] | ≤ 0.01 µM | 3 to 5 |
| CC[C@@H]1CN(Cc2cc([C@@H](CC(=O)O)c3ccc4c(nnn4C)c3C)cc3c2CCC3)S(=O)(=O)c2cccc(Cl)c2O1 [Example 48, (3R)-3-(7-{[(4R)-6-Chloro-4-ethyl-1,1-dioxido-3,4-dihydro-2H-5,1,2-benzoxathiazepin-2-yl]methyl}-2,3-dihydro-1H-inden-5-yl)-3-(1,4-dimethyl-1H-benzotriazol-5-yl)propanoic acid] | ≤ 0.01 µM | > 5 |
| CC[C@@H]1CN(Cc2cc(C(CC(=O)O)c3cc(OC)c4c(nnn4C)c3C)cc3ccsc23)S(=O)(=O)c2cc(Cl)cnc2O1 (stereo partly drawn) [Example 50, 3-(7-{[(4R)-8-Chloro-4-ethyl-1,1-dioxido-3,4-dihydro-2H-pyrido[2,3-b][1,4,5]oxathiazepin-2-yl]methyl}-1-benzothiophen-5-yl)-3-(7-methoxy-1,4-dimethyl-1H-benzotriazol-5-yl)propanoic acid] | 0.01 to 0.03 µM | > 5 |
| CC[C@@H]1CN(Cc2cc(C(CC(=O)O)c3cc(OC(F)(F)F)c4c(nnn4C)c3C)cc3ccsc23)S(=O)(=O)c2cc(Cl)cnc2O1 (stereo partly drawn) [Example 54, 3-(7-{[(4R)-8-Chloro-4-ethyl-1,1-dioxido-3,4-dihydro-2H-pyrido[2,3-b][1,4,5]oxathiazepin-2-yl]methyl}-1-benzothiophen-5-yl)-3-[1,4-dimethyl-7-(trifluoromethoxy)-1H-benzotriazol-5-yl]propanoic acid] | 0.01 to 0.03 µM | > 5 |
| CC[C@@H]1CN(Cc2cc(C(CC(=O)O)c3cc(OC(F)F)c4c(nnn4C)c3C)cc3ccsc23)S(=O)(=O)c2cc(Cl)cnc2O1 (stereo partly drawn) [Example 55, 3-(7-{[(4R)-8-Chloro-4-ethyl-1,1-dioxido-3,4-dihydro-2H-pyrido[2,3-b][1,4,5]oxathiazepin-2-yl]methyl}-1-benzothiophen-5-yl)-3-[7-(difluoromethoxy)-1,4-dimethyl-1H-benzotriazol-5-yl]propanoic acid] | 0.01 to 0.03 µM | > 5 |
| CC[C@@H]1CN(Cc2cc(C(CC(=O)O)c3ccc4c(nnn4CC(C)(C)O)c3C)cc3ccsc23)S(=O)(=O)c2cc(Cl)cnc2O1 (stereo partly drawn) [Example 56, 3-(7-{[(4R)-8-Chloro-4-ethyl-1,1-dioxido-3,4-dihydro-2H-pyrido[2,3-b][1,4,5]oxathiazepin-2-yl]methyl}-1-benzothiophen-5-yl)-3-[1-(2-hydroxy-2-methylpropyl)-4-methyl-1H-benzotriazol-5-yl]propanoic acid] | 0.01 to 0.03 µM | > 5 |
| CC[C@@H]1CN(Cc2cc(C(CC(=O)O)c3ccc4c(nnn4CCCS(C)(=O)=O)c3C)cc3ccsc23)S(=O)(=O)c2cc(Cl)cnc2O1 (stereo partly drawn) [Example 57, 3-(7-{[(4R)-8-Chloro-4-ethyl-1,1-dioxido-3,4-dihydro-2H-pyrido[2,3-b][1,4,5]oxathiazepin-2-yl]methyl}-1-benzothiophen-5-yl)-3-{4-methyl-1-[3-(methylsulfonyl)propyl]-1H-benzotriazol-5-yl}propanoic acid] | 0.01 to 0.03 µM | > 5 |
| CC[C@@H]1CN(Cc2cc(C(CC(=O)O)c3ccc4c(nnn4CCN(C)C)c3C)cc3ccsc23)S(=O)(=O)c2cc(Cl)cnc2O1 (stereo partly drawn) [Example 58, 3-(7-{[(4R)-8-Chloro-4-ethyl-1,1-dioxido-3,4-dihydro-2H-pyrido[2,3-b][1,4,5]oxathiazepin-2-yl]methyl}-1-benzothiophen-5-yl)-3-{1-[2-(dimethylamino)ethyl]-4-methyl-1H-benzotriazol-5-yl}propanoic acid] | 0.03 to 0.1 µM | > 5 |
| CC[C@@H]1CN(Cc2cc([C@@H](CC(=O)O)c3ccc4c(nnn4C)c3C)cc3ccsc23)[C@@H](C)c2ncccc2O1 [Example 63, (3R)-3-(1,4-Dimethyl-1H-benzotriazol-5-yl)-3-(7-{[(2R,5S)-2-ethyl-5-methyl-2,3-dihydropyrido[2,3-f][1,4]oxazepin-4(5H)-yl]methyl}-1-benzothiophen-5-yl)propanoic acid] | 0.01 to 0.03 µM | > 5 |
| CC[C@@H]1CN(Cc2cc([C@H](CC(=O)O)c3cc(Cl)c4c(nnn4C)c3C)cc3ccsc23)[C@@H](C)c2ncccc2O1 [Example 64, (3S)-3-(7-Chloro-1,4-dimethyl-1H-benzotriazol-5-yl)-3-(7-{[(2R,5S)-2-ethyl-5-methyl-2,3-dihydropyrido[2,3-f][1,4]oxazepin-4(5H)-yl]methyl}-1-benzothiophen-5-yl)propanoic acid] | ≤ 0.01 µM | 3 to 5 |
| CC[C@@H]1CN(Cc2cc([C@@H](CC(=O)O)c3cc(C)c4c(nnn4C)c3C)cc3ccsc23)[C@@H](C)c2ncccc2O1 [Example 67, (3R)-3-(7-{[(2R,5S)-2-Ethyl-5-methyl-2,3-dihydropyrido[2,3-f][1,4]oxazepin-4(5H)-yl]methyl}-1-benzothiophen-5-yl)-3-(1,4,7-trimethyl-1H-benzotriazol-5-yl)propanoic acid] | ≤ 0.01 µM | > 5 |

Continued, in another order:

| IC50 [1] | Structure (SMILES) | fold induction at 0.4 µM [2] |
| --- | --- | --- |
| 0.03 to 0.1 µM | CC[C@@H]1CN(Cc2cc(C(CC(=O)O)c3cc(C4CC4)c4c(nnn4C)c3C)cc3ccsc23)S(=O)(=O)c2cc(Cl)cnc2O1 (stereo partly drawn) [Example 49, 3-(7-{[(4R)-8-Chloro-4-ethyl-1,1-dioxido-3,4-dihydro-2H-pyrido[2,3-b][1,4,5]oxathiazepin-2-yl]methyl}-1-benzothiophen-5-yl)-3-(7-cyclopropyl-1,4-dimethyl-1H-benzotriazol-5-yl)propanoic acid] | > 5 |
| 0.01 to 0.03 µM | CC[C@@H]1CN(Cc2cc(C(CC(=O)O)c3cc(Cl)c4c(nnn4C)c3C)cc3ccsc23)S(=O)(=O)c2cc(Cl)cnc2O1 (stereo partly drawn) [Example 51, 3-(7-Chloro-1,4-dimethyl-1H-benzotriazol-5-yl)-3-(7-{[(4R)-8-chloro-4-ethyl-1,1-dioxido-3,4-dihydro-2H-pyrido[2,3-b][1,4,5]oxathiazepin-2-yl]methyl}-1-benzothiophen-5-yl)propanoic acid] | 3 to 5 |
| 0.01 to 0.03 µM | CC[C@@H]1CN(Cc2cc(C(CC(=O)O)c3cc(C#N)c4c(nnn4C)c3C)cc3ccsc23)S(=O)(=O)c2cc(Cl)cnc2O1 (stereo partly drawn) [Example 52, 3-(7-{[(4R)-8-Chloro-4-ethyl-1,1-dioxido-3,4-dihydro-2H-pyrido[2,3-b][1,4,5]oxathiazepin-2-yl]methyl}-1-benzothiophen-5-yl)-3-(7-cyano-1,4-dimethyl-1H-benzotriazol-5-yl)propanoic acid] | > 5 |
| 0.01 to 0.03 µM | CC[C@@H]1CN(Cc2cc(C(CC(=O)O)c3cc(C(F)(F)F)c4c(nnn4C)c3C)cc3ccsc23)S(=O)(=O)c2cc(Cl)cnc2O1 (stereo partly drawn) [Example 53, 3-(7-{[(4R)-8-Chloro-4-ethyl-1,1-dioxido-3,4-dihydro-2H-pyrido[2,3-b][1,4,5]oxathiazepin-2-yl]methyl}-1-benzothiophen-5-yl)-3-[1,4-dimethyl-7-(trifluoromethyl)-1H-benzotriazol-5-yl]propanoic acid] | > 5 |
| 0.01 to 0.03 µM | CC[C@@H]1CN(Cc2cc(C(CC(=O)O)c3cnc4c(nnn4C)c3C)cc3ccsc23)S(=O)(=O)c2cc(Cl)cnc2O1 (stereo partly drawn) [Example 59, 3-(7-{[(4R)-8-Chloro-4-ethyl-1,1-dioxido-3,4-dihydro-2H-pyrido[2,3-b][1,4,5]oxathiazepin-2-yl]methyl}-1-benzothiophen-5-yl)-3-(3,7-dimethyl-3H-[1,2,3]triazolo[4,5-b]pyridin-6-yl)propanoic acid] | > 5 |
| 0.01 to 0.03 µM | CC[C@@H]1CN(Cc2cc(C(CC(=O)O)c3ccc4c(nnn4CC(F)(F)F)c3C)cc3ccsc23)S(=O)(=O)c2cc(Cl)cnc2O1 (stereo partly drawn) [Example 60, 3-(7-{[(4R)-8-Chloro-4-ethyl-1,1-dioxido-3,4-dihydro-2H-pyrido[2,3-b][1,4,5]oxathiazepin-2-yl]methyl}-1-benzothiophen-5-yl)-3-[4-methyl-1-(2,2,2-trifluoroethyl)-1H-benzotriazol-5-yl]propanoic acid] | > 5 |
| 0.01 to 0.03 µM | CC[C@@H]1CN(Cc2cc(C(CC(=O)O)c3ccc4c(nnn4C)c3C)cc3ccsc23)[C@@H](C)c2ncccc2O1 (stereo partly drawn) [Example 61, 3-(1,4-Dimethyl-1H-benzotriazol-5-yl)-3-(7-{[(2R,5S)-2-ethyl-5-methyl-2,3-dihydropyrido[2,3-f][1,4]oxazepin-4(5H)-yl]methyl}-1-benzothiophen-5-yl)propanoic acid] | > 5 |
| 0.01 to 0.03 µM | CC[C@@H]1CN(Cc2cc([C@@H](CC(=O)O)c3ccc4c(nnn4C)c3C)cc3c2CCC3)[C@@H](C)c2ncccc2O1 [Example 65, (3R)-3-(1,4-Dimethyl-1H-benzotriazol-5-yl)-3-(7-{[(2R,5S)-2-ethyl-5-methyl-2,3-dihydropyrido[2,3-f][1,4]oxazepin-4(5H)-yl]methyl}-2,3-dihydro-1H-inden-5-yl)propanoic acid] | > 5 |
| 0.01 to 0.03 µM | CC[C@@H]1CN(Cc2cc([C@H](CC(=O)O)c3ccc4c(nnn4C)c3C)cc3c2CCC3)[C@@H](C)c2ncccc2O1 [Example 66, (3S)-3-(1,4-Dimethyl-1H-benzotriazol-5-yl)-3-(7-{[(2R,5S)-2-ethyl-5-methyl-2,3-dihydropyrido[2,3-f][1,4]oxazepin-4(5H)-yl]methyl}-2,3-dihydro-1H-inden-5-yl)propanoic acid] | > 5 |
